Measurements: patent publication US20140073651A1, “BENZAMIDE DERIVATIVES AS P2X7 RECEPTOR ANTAGONISTS” (Actelion Pharmaceuticals Ltd., priority 2011, published 2014)

Target: T1, human recombinant P2X7 receptor (Homo sapiens, UniProt Q99572)
T1 construct: expressed in transfected cells
T1 sequence (Q99572 1-595): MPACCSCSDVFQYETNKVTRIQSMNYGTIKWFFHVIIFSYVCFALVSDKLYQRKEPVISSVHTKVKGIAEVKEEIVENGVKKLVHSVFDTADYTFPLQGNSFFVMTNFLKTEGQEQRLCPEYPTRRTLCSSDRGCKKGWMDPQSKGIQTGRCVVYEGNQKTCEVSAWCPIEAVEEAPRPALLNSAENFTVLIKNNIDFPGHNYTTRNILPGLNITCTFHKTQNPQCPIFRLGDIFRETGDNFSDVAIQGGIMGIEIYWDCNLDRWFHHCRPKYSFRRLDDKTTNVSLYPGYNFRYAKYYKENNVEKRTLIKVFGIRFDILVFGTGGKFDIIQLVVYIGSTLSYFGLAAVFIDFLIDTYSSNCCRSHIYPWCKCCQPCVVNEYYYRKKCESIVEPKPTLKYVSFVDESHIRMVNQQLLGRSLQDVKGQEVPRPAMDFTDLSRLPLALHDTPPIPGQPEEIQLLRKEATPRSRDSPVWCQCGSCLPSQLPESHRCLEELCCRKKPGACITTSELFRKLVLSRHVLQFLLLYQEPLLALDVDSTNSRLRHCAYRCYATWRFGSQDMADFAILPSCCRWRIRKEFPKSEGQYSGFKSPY
Assay: YO-PRO assay (YO-PRO-1 uptake) in HEK cells stably expressing P2X7
Format: cell-based
Details: HEK-293 cells expressing human recombinant P2X7 receptor; ATP 250 μM, 90 minutes; YO-PRO-1 fluorescence (FLIPR tetra); read-out: IC50 (antagonistic activity with respect to the P2X7 receptor)
Method: Cell line generation was performed in general according to established molecular cloning protocols. Specifically, RNA was extracted from human whole blood using the Qiagen RNeasy kit (Qiagen, CH) according to the manufacturer's instructions. Subsequently cDNA was made (Superscript II, Invitrogen AG, CH) and the human P2X7 gene (genbank ref. BC011913) was amplified with the following primers: [NT] and [NT] The amplified sequence was subsequently ligated into a pcDNA3.1 (+) NotI, NheI digested plasmid. […] Following a 24 h exposure to DNA, cells were trypsinized and re-seeded at low density in the presence of 250 μg Geneticin. Geneticin resistant cells were then selected during two consecutive rounds of cloning by serial limiting dilution with visual inspection. Individual clones were screened for P2X7 expression by applying ATP and recording the resultant uptake of YO-[…]. Specific cell clones were chosen based on RNA and protein expression. HEK cells stably expressing P2X7 were used to screen drugs using the YO-[…] assay. Cells were grown to confluency in adherent culture at 37° C. in a humidified 5% CO2 incubator (split 1/5 every 3-4 days with DMEM, 10% FCS, 1% Penicillin/Streptomycin, 250 μg/ml Geneticin). Adherent cells were detached by incubation with Trypsine (1 ml per 165 cm^2 dish) for 2 minutes, then washed off with 10 ml PBS (without Mg^2+ and Ca^2+), and resuspended in DMEM, 10% FCS, 1% Penicillin/Streptomycin, no Geneticin. 10'000 cells per well (48 hours before the assay) or 25'000 cells per well (Vi-cell XR (Beckman Coulter) (24 hours before the assay) in 50 μl full medium were seeded on 384-well black-wall, clear bottom plates, that were coated before with 10 μl per well Poly-L-Lysine, incubated for 30-60 minutes at 37° C. and washed once with PBS. Medium was removed from cells and 50 μl of assay buffer containing 0.5 μM YO-[…] was added into the wells. Solutions of antagonist compounds were prepared by serial dilutions of a 10 mM DMSO solution of the antagonist into PBS using a BioMek (Beckman Coulter). Each concentration was performed in duplicate. […] During this time period, four time points were taken. Each time point comprised the average of several measurements made within a few seconds. […] The FLIPR tetra was equipped with Molecular Devices Screen Works system control software to define and run experimental protocols. […] For IC50 measurements the maximum intensity is plotted against the concentration of compound to determine IC50 values.

Row | IC50 [nM] | Structure (SMILES)
1 | 265 | O=C(NCC1(O)CCCCC1)c1cc([S+]([O-])c2ccccn2)ccc1Cl (racemic) [Example 133, rac-2-Chloro-N-(1-hydroxy-cyclohexylmethyl)-5-(pyridine-2-sulfinyl)-benzamide]
2 | 640 | O=C(NCC1(O)CCCCC1)c1cc([S+]([O-])c2ccnc(Cl)n2)ccc1Cl (racemic) [Example 136, rac-2-Chloro-5-(2-chloro-pyrimidine-4-sulfinyl)-N-(1-hydroxy-cyclohexylmethyl)-benzamide]
3 | 914 | COc1nccc([S+]([O-])c2ccc(Cl)c(C(=O)NCC3(O)CCCCC3)c2)n1 (racemic) [Example 140, rac-2-Chloro-N-(1-hydroxy-cyclohexylmethyl)-5-(2-methoxy-pyrimidine-4-sulfinyl)-benzamide]
4 | 25 | O=C(NCC1(O)CCCCC1)c1cc(C(F)c2cc[nH]c(=O)n2)ccc1Cl (racemic) [Example 152, rac-2-Chloro-5-[fluoro-(2-oxo-1,2-dihydro-pyrimidin-4-yl)-methyl]-N-(1-hydroxy-cyclohexylmethyl)-benzamide]
5 | 14 | CC(O)(c1ccc(Cl)c(C(=O)NCC2(O)CCCCC2)c1)c1cc[nH]c(=O)n1 (racemic) [Example 156, rac-2-Chloro-N-(1-hydroxy-cyclohexylmethyl)-5-[1-hydroxy-1-(2-oxo-1,2-dihydro-pyrimidin-4-yl)-ethyl]-benzamide]
6 | 346 | COc1nccc(C(C)(O)c2ccc(Cl)c(C(=O)NCC3(O)CCCCC3)c2)n1 (racemic) [Example 159, rac-2-Chloro-N-(1-hydroxy-cyclohexylmethyl)-5-[1-hydroxy-1-(2-methoxy-pyrimidin-4-yl)-ethyl]-benzamide]
7 | 9 | CC(O)(c1ccc(Cl)c(C(=O)NCC2(O)CCCCC2)c1)c1cc[nH]c(=O)n1 (single isomer, unassigned) [Example 157, 2-Chloro-N-(1-hydroxy-cyclohexylmethyl)-5-[1-hydroxy-1-(2-oxo-1,2-dihydro-pyrimidin-4-yl)-ethyl]-benzamide]
8 | 66 | CC(O)(c1ccc(Cl)c(C(=O)NCC2(O)CCCCC2)c1)c1cc[nH]c(=O)n1 (single isomer, unassigned) [Example 158]
9 | 111 | O=C(NCC1(O)CCCCC1)c1cc(Nc2ccccc2)ccc1Cl [Example 1, 2-Chloro-N-(1-hydroxy-cyclohexylmethyl)-5-phenylamino-benzamide]
10 | 315 | CN(c1ccccc1)c1ccc(Cl)c(C(=O)NCC2(O)CCCCC2)c1 [Example 2, 2-Chloro-N-(1-hydroxy-cyclohexylmethyl)-5-(methyl-phenyl-amino)-benzamide]
11 | 538 | COCCN(c1ccccc1)c1ccc(Cl)c(C(=O)NCC2(O)CCCCC2)c1 [Example 3, 2-Chloro-N-(1-hydroxy-cyclohexylmethyl)-5-[(2-methoxy-ethyl)-phenyl-amino]-benzamide]
12 | 103 | O=C(NCC1(O)CCCCC1)c1cc(Nc2ccccc2F)ccc1Cl [Example 4, 2-Chloro-5-(2-fluoro-phenylamino)-N-(1-hydroxy-cyclohexylmethyl)-benzamide]
13 | 531 | CN(c1ccc(Cl)c(C(=O)NCC2(O)CCCCC2)c1)c1ccccc1F [Example 5, 2-Chloro-5-[(2-fluoro-phenyl)-methyl-amino]-N-(1-hydroxy-cyclohexylmethyl)-benzamide]
14 | 154 | O=C(NCC1(O)CCCCC1)c1cc(Nc2ccc(F)cc2F)ccc1Cl [Example 6, 2-Chloro-5-(2,4-difluoro-phenylamino)-N-(1-hydroxy-cyclohexylmethyl)-benzamide]
15 | 876 | CN(c1ccc(Cl)c(C(=O)NCC2(O)CCCCC2)c1)c1ccc(F)cc1F [Example 7, 2-Chloro-5-[(2,4-difluoro-phenyl)-methyl-amino]-N-(1-hydroxy-cyclohexylmethyl)-benzamide]
16 | 459 | O=C(NCC1(O)CCCCC1)c1cc(Nc2ccncn2)ccc1Cl [Example 8, 2-Chloro-N-(1-hydroxy-cyclohexylmethyl)-5-(pyrimidin-4-ylamino)-benzamide]
17 | 481 | CN(c1ccc(Cl)c(C(=O)NCC2(O)CCCCC2)c1)c1ccncn1 [Example 9, 2-Chloro-N-(1-hydroxy-cyclohexylmethyl)-5-(methyl-pyrimidin-4-yl-amino)-benzamide]
18 | 890 | O=C(NCC1(O)CCCCC1)c1cc(Nc2ccnc(Cl)n2)ccc1Cl [Example 10, 2-Chloro-5-(2-chloro-pyrimidin-4-ylamino)-N-(1-hydroxy-cyclohexylmethyl)-benzamide]
19 | 184 | CN(c1ccc(Cl)c(C(=O)NCC2(O)CCCCC2)c1)c1ccnc(Cl)n1 [Example 11, 2-Chloro-5-[(2-chloro-pyrimidin-4-yl)-methyl-amino]-N-(1-hydroxy-cyclohexylmethyl)-benzamide]
20 | 733 | COc1nccc(Nc2ccc(Cl)c(C(=O)NCC3(O)CCCCC3)c2)n1 [Example 12, 2-Chloro-N-(1-hydroxy-cyclohexylmethyl)-5-(2-methoxy-pyrimidin-4-ylamino)-benzamide]
21 | 200 | COc1nccc(N(C)c2ccc(Cl)c(C(=O)NCC3(O)CCCCC3)c2)n1 [Example 13, 2-Chloro-N-(1-hydroxy-cyclohexylmethyl)-5-[(2-methoxy-pyrimidin-4-yl)-methyl-amino]-benzamide]
22 | 127 | CNc1nccc(N(C)c2ccc(Cl)c(C(=O)NCC3(O)CCCCC3)c2)n1 [Example 14, 2-Chloro-N-(1-hydroxy-cyclohexylmethyl)-5-[methyl-(2-methylamino-pyrimidin-4-yl)-amino]-benzamide]
23 | 177 | CN(C)c1nccc(N(C)c2ccc(Cl)c(C(=O)NCC3(O)CCCCC3)c2)n1 [Example 15, 2-Chloro-5-[(2-dimethylamino-pyrimidin-4-yl)-methyl-amino]-N-(1-hydroxy-cyclohexylmethyl)-benzamide]
24 | 73 | O=C(NCC1(O)CCCCC1)c1cc(Nc2ccnc(O)n2)ccc1Cl [Example 16, 2-Chloro-N-(1-hydroxy-cyclohexylmethyl)-5-(2-hydroxypyrimidin-4-ylamino)-benzamide]
25 | 35 | CN(c1ccc(Cl)c(C(=O)NCC2(O)CCCCC2)c1)c1cc[nH]c(=O)n1 [Example 17, 2-Chloro-N-(1-hydroxy-cyclohexylmethyl)-5-[methyl-(2-oxo-1,2-dihydro-pyrimidin-4-yl)-amino]-benzamide]
26 | 106 | CN(c1ccc(Cl)c(C(=O)NCC2(O)CCCCC2)c1)c1ccnc(=O)n1C [Example 18, 2-Chloro-N-(1-hydroxy-cyclohexylmethyl)-5-[methyl-(3-methyl-2-oxo-2,3-dihydro-pyrimidin-4-yl)-amino]-benzamide]
27 | 420 | CN(c1ccc(Cl)c(C(=O)NCC2(O)CCCCC2)c1)c1ccn(C)c(=O)n1 [Example 19, 2-Chloro-N-(1-hydroxy-cyclohexylmethyl)-5-[methyl-(1-methyl-2-oxo-1,2-dihydro-pyrimidin-4-yl)-amino]-benzamide]
28 | 228 | CCN(c1ccc(Cl)c(C(=O)NCC2(O)CCCCC2)c1)c1ccnc(Cl)n1 [Example 20, 2-Chloro-5-[(2-chloro-pyrimidin-4-yl)-ethyl-amino]-N-(1-hydroxy-cyclohexylmethyl)-benzamide]
29 | 17 | CCN(c1ccc(Cl)c(C(=O)NCC2(O)CCCCC2)c1)c1cc[nH]c(=O)n1 [Example 21, 2-Chloro-5-[ethyl-(2-oxo-1,2-dihydro-pyrimidin-4-yl)-amino]-N-(1-hydroxy-cyclohexylmethyl)-benzamide]
